Results taken from patent US10392368B2, “Pyrazolo and triazolo bicyclic compounds as JAK kinase inhibitors” (THERAVANCE BIOPHARMA R&D IP, LLC, priority 2017, dated 2019).
Read-outs that look alike come from different tables or passages of the source.

Legend:
JAK1 = target: T1, JAK1 (Homo sapiens, UniProt P23458); experiment: Biochemical JAK1 kinase assay (LanthaScreen); settings: for Ki: read-out: JAK 1 (pKi) (converted)
T1 construct: GST; purchased Life Technologies
Summary of the method: (§1)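 Recombinant GST-tagged JAK enzymes with GFP-STAT1 peptide substrate in 50 mM HEPES pH 7.5, 10 mM MgCl2, 1 mM EGTA, 0.01% Brij-35; compounds pre-incubated 1 h, then ATP added, 1 h reaction at ambient temperature. TR-FRET (Tb-anti-pSTAT1 pTyr701, 520/495 nm) after EDTA stop; IC50 by 4-parameter fit, converted to pKi via Cheng-Prusoff.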

[1] = system: IL-2 stimulated pSTAT5 in Tall-1 T cells; experiment: Cellular JAK3 potency assay: inhibition of IL-2 stimulated pSTAT5 in Tall-1 T cells; format: cell-based, human; settings: for IC50: Homo sapiens, read-out: Tall-1 (pIC50) (converted)
Summary of the method: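 Tall-1 human T cells were preincubated with compound for 1 h at 37° C, then stimulated with IL-2 (300 ng/ml final) for 30 min. STAT5 phosphorylation in lysates was read by AlphaLisa bead emission, and IC50 from inhibition curves is given as pIC50 (mean±SD).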

JAK3 = target: T2, JAK3 (Homo sapiens, UniProt P52333); experiment: Biochemical JAK3 kinase assay (LanthaScreen); parameters: GST; purchased Life Technologies; settings: for Ki: read-out: JAK 3 (pKi) (converted)
T2 sequence (P52333 1-1124): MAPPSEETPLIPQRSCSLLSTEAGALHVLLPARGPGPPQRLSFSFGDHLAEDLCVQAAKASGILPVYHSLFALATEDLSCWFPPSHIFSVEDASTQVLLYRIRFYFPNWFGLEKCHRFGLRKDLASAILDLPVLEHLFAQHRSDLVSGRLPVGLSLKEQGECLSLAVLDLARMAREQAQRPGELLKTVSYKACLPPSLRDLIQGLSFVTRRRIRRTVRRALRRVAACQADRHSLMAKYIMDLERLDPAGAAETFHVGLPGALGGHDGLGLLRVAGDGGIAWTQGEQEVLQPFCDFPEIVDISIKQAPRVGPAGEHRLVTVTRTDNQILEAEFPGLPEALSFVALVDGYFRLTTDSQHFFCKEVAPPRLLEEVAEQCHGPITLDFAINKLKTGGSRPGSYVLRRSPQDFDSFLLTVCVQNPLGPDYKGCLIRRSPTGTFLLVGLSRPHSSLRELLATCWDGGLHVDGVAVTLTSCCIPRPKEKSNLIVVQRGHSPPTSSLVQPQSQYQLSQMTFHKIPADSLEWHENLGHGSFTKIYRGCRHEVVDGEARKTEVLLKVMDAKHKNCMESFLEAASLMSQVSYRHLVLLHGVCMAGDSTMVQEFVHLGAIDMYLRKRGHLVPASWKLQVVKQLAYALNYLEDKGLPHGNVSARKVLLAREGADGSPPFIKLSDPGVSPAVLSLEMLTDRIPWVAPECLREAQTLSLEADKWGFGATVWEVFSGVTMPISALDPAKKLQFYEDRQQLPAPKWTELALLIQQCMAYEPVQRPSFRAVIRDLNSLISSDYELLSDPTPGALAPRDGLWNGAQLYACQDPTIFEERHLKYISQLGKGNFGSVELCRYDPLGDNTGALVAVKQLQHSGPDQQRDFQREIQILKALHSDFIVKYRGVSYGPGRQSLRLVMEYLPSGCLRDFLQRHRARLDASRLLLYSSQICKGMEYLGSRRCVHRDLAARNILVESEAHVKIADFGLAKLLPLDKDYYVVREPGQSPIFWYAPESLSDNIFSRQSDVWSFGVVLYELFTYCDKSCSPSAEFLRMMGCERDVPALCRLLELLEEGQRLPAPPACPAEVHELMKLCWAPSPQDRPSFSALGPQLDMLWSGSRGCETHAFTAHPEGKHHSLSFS
Summary of the method: as §1

[2] = IL-2 stimulated pSTAT5, Tall-1 T cells
[3] = selectivity JAK3 over JAK1, difference of pKi
[4] = TALL-1, IL-2 stimulated pSTAT5 in Tall-1 T cells
[5] = selectivity: difference of pKi JAK3 and pKi JAK1
[6] = IL-2 stimulated pSTAT5 in Tall-1 T cells
[7] = TALL-1, IL-2 stimulated pSTAT5, Tall-1 T cells

T1 sequence (P23458 whole entry): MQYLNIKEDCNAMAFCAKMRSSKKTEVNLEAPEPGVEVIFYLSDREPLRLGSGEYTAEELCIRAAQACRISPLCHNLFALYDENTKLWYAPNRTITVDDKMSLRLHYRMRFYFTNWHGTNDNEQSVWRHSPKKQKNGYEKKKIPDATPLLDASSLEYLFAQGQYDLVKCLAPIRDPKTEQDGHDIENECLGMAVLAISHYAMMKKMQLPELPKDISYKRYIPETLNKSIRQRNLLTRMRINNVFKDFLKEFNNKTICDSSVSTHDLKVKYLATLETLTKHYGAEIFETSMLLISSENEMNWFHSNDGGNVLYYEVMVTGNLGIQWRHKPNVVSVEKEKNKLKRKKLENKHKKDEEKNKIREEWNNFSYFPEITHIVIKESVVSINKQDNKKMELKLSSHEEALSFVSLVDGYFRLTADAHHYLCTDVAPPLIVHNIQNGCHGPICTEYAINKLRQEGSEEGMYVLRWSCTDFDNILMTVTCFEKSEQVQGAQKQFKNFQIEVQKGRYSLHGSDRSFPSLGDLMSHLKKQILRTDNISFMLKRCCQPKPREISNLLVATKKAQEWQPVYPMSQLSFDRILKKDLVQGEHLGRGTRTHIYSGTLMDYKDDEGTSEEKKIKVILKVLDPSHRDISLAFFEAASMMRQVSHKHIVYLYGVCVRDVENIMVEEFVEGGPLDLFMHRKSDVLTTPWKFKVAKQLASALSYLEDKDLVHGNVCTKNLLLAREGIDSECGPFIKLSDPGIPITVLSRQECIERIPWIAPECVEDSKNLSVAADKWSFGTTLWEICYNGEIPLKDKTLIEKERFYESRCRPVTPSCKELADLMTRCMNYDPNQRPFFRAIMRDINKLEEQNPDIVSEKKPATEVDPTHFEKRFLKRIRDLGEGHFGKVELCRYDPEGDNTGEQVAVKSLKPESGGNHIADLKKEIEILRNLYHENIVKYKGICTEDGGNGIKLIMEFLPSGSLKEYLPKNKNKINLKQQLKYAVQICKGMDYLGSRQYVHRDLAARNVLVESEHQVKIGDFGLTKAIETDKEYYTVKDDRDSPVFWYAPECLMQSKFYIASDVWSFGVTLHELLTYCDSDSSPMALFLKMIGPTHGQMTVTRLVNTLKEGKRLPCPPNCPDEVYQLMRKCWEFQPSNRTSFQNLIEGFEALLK

SMILES | JAK 1 (pKi) (JAK1) | Tall-1 (pIC50) [1, 2] | JAK 3 (pKi) (JAK3) | JAK3 (pKi)-JAK1 (pKi) (JAK3; [3]) | Ki (JAK1) | IC50 [1, 4] | Ki (JAK3) | JAK3 (pKi)-JAK1 (pKi) (JAK3; [5]) | Tall-1 (pIC50) [1, 6] | IC50 [1, 7]
C=CC(=O)N1CCC(COc2nc(-c3ccc(O)c(F)c3)cc3[nH]ncc23)CC1 [Compound 14-8] | D (a pKi value between 7 and 8 (Ki between 100 nM and 10 nM)) | A (a pIC50 value≥7.5 (IC50≤32 nM)) | A (a pKi value≥10 (Ki≤0.1 nM)) | B (a value of 2.3 to 3) |  |  |  |  |  | 
O=C(/C=C/CN1CCSCC1)N1CC(COc2cc(-c3ccc(O)cc3)cc3[nH]ncc23)C1 [Compound 3-130] |  |  |  |  | > 100 nM | 31.6 to 200 nM | 0.1 to 1 nM | A (a value of 3 or above) |  | 
C=CC(=O)N1CC(COc2nc(-c3ccc(O)cc3)cc3[nH]ncc23)C1 [Compound 3-29] | E (a pKi value of 7 or below (Ki of 100 nM or above)) |  | B (a pKi value between 9 and 10 (Ki between 1 nM and 0.1 nM)) |  |  |  |  | A (a value of 3 or above) | A (a pIC50 value≥7.5 (IC50≤32 nM)) | 
CN(C)C/C=C/C(=O)N1CCO[C@H](C(=O)Nc2cc(-c3ccc(O)cc3)cc3[nH]ncc23)C1 [Compound 11-2] | E (a pKi value of 7 or below (Ki of 100 nM or above)) | C (a pIC50 value between 6 and 6.7 (IC50 between 1 μM and 200 nM)) | B (a pKi value between 9 and 10 (Ki between 1 nM and 0.1 nM)) | A (a value of 3 or above) |  |  |  |  |  | 
CN(C)C/C=C/C(=O)N1CCC(C)(Nc2cc(-c3ccc(O)cc3)cc3[nH]ncc23)CC1 [Compound 7-1] | E (a pKi value of 7 or below (Ki of 100 nM or above)) | C (a pIC50 value between 6 and 6.7 (IC50 between 1 μM and 200 nM)) | B (a pKi value between 9 and 10 (Ki between 1 nM and 0.1 nM)) | A (a value of 3 or above) |  |  |  |  |  | 
C=CC(=O)N1C2CCC1CC(Oc1nc(-c3ccc(O)c(Cl)c3)cc3[nH]ncc13)C2 (stereo not shown) [Compound 9-7] | E (a pKi value of 7 or below (Ki of 100 nM or above)) | B (a pIC50 value between 6.7 (included) and 7.5 (IC50 between 200 nM and 32 nM)) | A (a pKi value≥10 (Ki≤0.1 nM)) | A (a value of 3 or above) |  |  |  |  |  | 
CN(C)C/C=C/C(=O)N1CC(C)(Oc2cc(-c3ccc(O)cc3)cc3[nH]ncc23)C1 [Compound 5-11] | E (a pKi value of 7 or below (Ki of 100 nM or above)) |  | B (a pKi value between 9 and 10 (Ki between 1 nM and 0.1 nM)) |  |  |  |  | A (a value of 3 or above) | B (a pIC50 value between 6.7 (included) and 7.5 (IC50 between 200 nM and 32 nM)) | 
C=CC(=O)N1CCC[C@H](C(=O)Nc2cc(-c3ccc(O)cc3)cc3[nH]ncc23)C1 [Compound 12-56] |  |  |  | A (a value of 3 or above) | > 100 nM |  | < 0.1 nM |  |  | 31.6 to 200 nM
CN(C)C/C=C/C(=O)N1CC[C@@H]1COc1cc(-c2ccc(O)cc2)cc2[nH]ncc12 [Compound 12-22] |  |  |  | A (a value of 3 or above) | > 100 nM |  | 0.1 to 1 nM |  |  | 200 to 1000 nM
C=CC(=O)N1CC(F)(COc2nc(-c3ccc(O)cc3)cc3[nH]ncc23)C1 [Compound 3-90] |  |  |  |  | 10 to 100 nM | < 31.6 nM | < 0.1 nM | B (a value of 2.3 to 3) |  | 
C=CC(=O)N1CC(COc2nc(-c3ccc(O)cc3)nc3[nH]ncc23)(OC)C1 [Compound 3-76] |  |  |  |  | > 100 nM | 31.6 to 200 nM | < 0.1 nM | A (a value of 3 or above) |  | 
CN(C)C/C=C/C(=O)N1CC[C@H](COc2nc(-c3ccc(O)c(F)c3)cc3[nH]ncc23)C1 [Compound 2-13] | E (a pKi value of 7 or below (Ki of 100 nM or above)) |  | B (a pKi value between 9 and 10 (Ki between 1 nM and 0.1 nM)) |  |  |  |  | B (a value of 2.3 to 3) | C (a pIC50 value between 6 and 6.7 (IC50 between 1 μM and 200 nM)) | 
C=CC(=O)N1CCCC(Oc2cc(-c3ccc(O)cc3)nc3[nH]ncc23)C1 (stereo not shown) [Compound 8-6] | E (a pKi value of 7 or below (Ki of 100 nM or above)) | B (a pIC50 value between 6.7 (included) and 7.5 (IC50 between 200 nM and 32 nM)) | B (a pKi value between 9 and 10 (Ki between 1 nM and 0.1 nM)) | A (a value of 3 or above) |  |  |  |  |  | 
C=CC(=O)N1CC(C)(Oc2cc(-c3ccc(O)c(F)c3)cc3[nH]ncc23)C1 [Compound 5-24] | E (a pKi value of 7 or below (Ki of 100 nM or above)) | B (a pIC50 value between 6.7 (included) and 7.5 (IC50 between 200 nM and 32 nM)) | B (a pKi value between 9 and 10 (Ki between 1 nM and 0.1 nM)) | A (a value of 3 or above) |  |  |  |  |  | 
C=CC(=O)N1CC(CC)(COc2cc(-c3ccc(O)cc3)cc3[nH]ncc23)C1 [Compound 3-14] | E (a pKi value of 7 or below (Ki of 100 nM or above)) |  | B (a pKi value between 9 and 10 (Ki between 1 nM and 0.1 nM)) |  |  |  |  | A (a value of 3 or above) | B (a pIC50 value between 6.7 (included) and 7.5 (IC50 between 200 nM and 32 nM)) | 
C=CC(=O)N1CCC(S(=O)(=O)c2cc(-c3ccc(O)cc3)cc3[nH]ncc23)CC1 [Compound 12-8] |  |  |  | A (a value of 3 or above) | > 100 nM |  | 0.1 to 1 nM |  |  | 200 to 1000 nM
CN(C)C/C=C/C(=O)N1CC[C@H](Oc2nc(-c3ccc(O)cc3)cc3[nH]ncc23)C1 [Compound 1-7] |  |  |  |  | > 100 nM | 200 to 1000 nM | 0.1 to 1 nM | B (a value of 2.3 to 3) |  | 
CN(C)CC=CC(=O)N1C2CCC1CC(Oc1cc(-c3ccc(O)cc3)cc3[nH]ncc13)C2 (stereo not shown) [Compound 10-1] | D (a pKi value between 7 and 8 (Ki between 100 nM and 10 nM)) | B (a pIC50 value between 6.7 (included) and 7.5 (IC50 between 200 nM and 32 nM)) | A (a pKi value≥10 (Ki≤0.1 nM)) | B (a value of 2.3 to 3) |  |  |  |  |  | 
CN(C)C/C=C/C(=O)N1CCC(Oc2cc(-c3ccc(O)cc3)cc3[nH]ncc23)CC1 [Compound 6-1] |  |  |  | B (a value of 2.3 to 3) | 10 to 100 nM |  | < 0.1 nM |  |  | 31.6 to 200 nM
